Test results from patent US5962487A, “Antipicornaviral compounds and methods for their use and preparation” (Agouron Pharmaceuticals, Inc., priority 1997, dated 1999).

Experiments:
HRV-14 = assay: Antirhinoviral HI-HeLa Cell Culture Assay (cell protection, XTT), HRV-14; format: cell-based, human rhinovirus; conditions: for TI: CC50/EC50, HRV serotype-14, 2880 min; for EC50: Rhinovirus B, HRV14, 48 h, HRV serotype-14 infected HI-HeLa cells, XTT, two days
Method: In the Cell Protection Assay, the ability of compounds to protect cells against HRV infection was measured by the XTT dye reduction method. This method is described in O. S. Weislow, R. Kiser, D. L. Fine, J. Bader, R. H. Shoemaker, and M. R. Boyd, J. Natl. Cancer Inst. 1989, 81, 577-586, which document is entirely incorporated herein by reference.
(§1) HI-HeLa cells were infected with HRV-14 (unless otherwise noted) at a multiplicity of infection (m.o.i.) of 0.13 (virus particles/cell) or mock-infected with medium only. Infected or mock-infected cells were resuspended at 8×10^5 cells per mL and incubated with appropriate concentrations of compounds of formulas I and II. Two days later, XTT/PMS was added to test plates, and the amount of formazan produced was quantified spectrophotometrically at 450/650 nm. The EC50 was calculated as the concentration of compound that increased the percentage of formazan production in compound-treated, virus-infected cells to 50% of that produced by compound-free mock-infected cells. The 50% cytotoxic dose (CC50) was calculated as the concentration of compound that decreased the percentage of formazan produced in compound-treated, mock-infected cells to 50% of that produced in compound-free, mock-infected cells. The therapeutic index (TI) was calculated by dividing the CC50 by the EC50.
(§2) All strains of human rhinovims (HRV) for use in this assay were purchased from American Type Culture Collection (ATCC), except for HRV serotype-14, which was produced from the infectious cDNA clone, constructed and supplied to us by Dr. Roland Rueckert at the Institute for Molecular Virology, University of Wisconsin, Madison, Wis. HRV stocks were propagated, and antiviral assays were performed in HI-HeLa (ATCC). Cells were grown in Minimal Essential Medium, available from Life Technologies, with 10% fetal bovine serum.
The compounds were tested against control compounds WIN 51711, WIN 52084, and WIN 54954, all obtained from Sterling-Winthrop Pharmaceuticals, and control compound Pirodavir, obtained from Janssen Pharmaceuticals. Antiviral data obtained for the test compounds are shown in Table 2 where all data are for HRV serotype-14 unless otherwise noted in parentheses.

[1] = molecular target: T1, Rhinovirus 3C protease (RVP) serotype-14 (Human rhinovirus 14, UniProt P03303); assay: Inhibition of Rhinovirus Protease, serotype 14 (FRET assay); format: biochemical; conditions: for kinact/KI: read-out: kobs/I; for Ki: 10 minute preincubation with 50 nM RVP prior to addition of substrate, read-out: INHIB (Ki)
T1 construct: Recombinant Rhinovirus 3C proteases from serotypes 14, 16, 2 or 89 were prepared; made in house
T1 sequence (P03303 1538-1719): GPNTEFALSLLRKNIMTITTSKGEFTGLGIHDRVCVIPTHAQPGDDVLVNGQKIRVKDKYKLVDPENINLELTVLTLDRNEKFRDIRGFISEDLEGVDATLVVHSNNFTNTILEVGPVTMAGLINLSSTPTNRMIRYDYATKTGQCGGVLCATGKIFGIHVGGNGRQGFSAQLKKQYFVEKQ
Method: Stock solutions (50 mM, in DMSO) of various compounds were prepared; dilutions were in the same solvent. Recombinant Rhinovirus 3C proteases from serotypes 14, 16, 2 or 89 were prepared by the following standard chromatographic procedures: (1) ion exchange using Q Sepharose Fast Flow from Pharmacia; (2) affinity chromatography using Affi-Gel Blue from Biorad; and (3) sizing using Sephadex G-100 from Pharmacia. Assays contained 2% DMSO, 50 mM tris pH 7.6, 1 mM EDTA, a compound at the indicated concentrations, approximately 1 μM substrate, and 50-100 nM protease. For Ki determinations, the compound and the enzyme were preincubated for 10 minutes at 30° C. prior to addition of the substrate (substrate start). The kobs/I values were obtained from reactions initiated by addition of enzyme rather than substrate. RVP activity is measured in the fluorescence resonance energy transfer assay. The substrate was (N-terminal) DABCYL-(Gly-Arg-Ala-Val-Phe-Gln-Gly-Pro-Val-Gly)-EDANS. In the uncleaved peptide, the EDANS fluorescence was quenched by the proximal DABCYL moiety. When the peptide was cleaved, the quenching was relieved, and activity was measured as an increase in fluorescence signal.
In the above table, all data is for RVP serotype-14 unless otherwise noted in parentheses. All strains of human rhinovirus (HRV) were purchased from American Type Culture Collection (ATCC), except for serotype 14, which was produced from the infectious cDNA clone constructed and supplied to us by Dr. Roland Rueckert at the Institute for Molecular Virology, University of Wisconsin, Madison, Wis. The column designated INHIB represents the percent inhibition, with the concentration of the compound in μM indicated in parentheses, unless Ki was assigned as designated by (Ki), at 10 minute preincubation with 50 nM RVP prior to addition of substrate was used. The data in the column designated kobs/I was measured from progress curves in enzyme start experiments.

in vitro = format: cell-based; conditions: human, hi-hela cells
Method: as §1, §2

SMILES	TI (HRV-14)	EC50 (HRV-14) [µM]	kinact/KI [1] [M⁻¹ s⁻¹]	CC50 at 48 h (in vitro) [µM]	Ki ([1]; RVP serotype-14) [µM]	inhibition at 10 µM ([1]; RVP serotype-14, 10 μM compound, 10 minute preincubation with 50 nM RVP, read-out: INHIB (percent inhibition)) [%]
CCOC(=O)/C=C/[C@H](CCC(N)=O)NC(=O)[C@H](Cc1ccccc1)N(C)C(=O)[C@H](CC(C)C)NC(=O)SC1CCCC1 [Compound 5, Ethyl-3-(Cyclopentylthiocarbonyl-L-Leu-L-N-Me-Phe-L-Gln)-E-Propenoate]	214	0.24	17300	51.4	–	–
CCOC(=O)/C=C/[C@H](CCC(N)=O)NC(=O)Cn1c(-c2ccccc2)ncc(N)c1=O [Compound 31, Ethyl-3-{[(5-Amino)-2-Phenyl-6Oxo-1,6-Dihydro-1-Pyrimidinyl]-L-Gln}-Propenoate]	> 6	56	39	> 320	–	–
CCOC(=O)/C=C/[C@H](CCC(N)=O)NC(=O)[C@H](Cc1ccccc1)N(C)C(=O)[C@H](CC(C)C)NC(=O)SC(C)C [Compound 38]	> 278	0.36	18200	> 100	–	–
CCOC(=O)/C=C/[C@H](CCC(N)=O)NC(=O)[C@H](Cc1ccccc1)N(C)C(=O)[C@H](CC(C)C)NC(=O)SC1CCCCC1 [Compound 42]	111	0.45	15000	50.1	–	–
CCSC(=O)N[C@@H](CC(C)C)C(=O)N(C)[C@@H](Cc1ccccc1)C(=O)N[C@H](/C=C/C(=O)N1CCOC1=O)CCC(N)=O [Compound 17, 1-[2'-Oxazolidon-3'-yl]-3-(Ethylthiocarbonyl-L-Leu-L-N-Me-Phe-L-Gln)-E-Propepone]	106	0.5	750000	53	–	–
CCOC(=O)/C=C/[C@H](CCC(N)=O)NC(=O)[C@H](Cc1ccc(C)cc1)N(C)C(=O)[C@@H](NC(=O)SC1CCCC1)C(C)(C)C [Compound 48]	> 20	0.5	14000	> 10	–	–
CCSC(=O)N[C@H](C(=O)N(C)[C@@H](Cc1ccccc1)C(=O)N[C@H](/C=C1\CCOC1=O)CCC(N)=O)C(C)C [Compound 12, 2-(Ethylthiocarbonyl-L-Val-L-N-Me-Phe-L-Gln)-E-(α-Vinyl-γ-Butyrolactone)]	> 76	4.2	5070	> 320	–	–
CCOC(=O)/C=C/[C@H](CCC(N)=O)NC(=O)C1CN(Cc2ccccc2)CCN1C(=O)[C@H](CC(C)C)NC(=O)OCc1ccccc1 (mixture of isomers) [Compound 28, Ethyl-3-(CBZ-L-Leu-DL-(4-Benzyl)-Pipz-L-Gln]-E-Propenoate]	18	6.9	116	125	50	–
CCOC(=O)/C=C/[C@H](CCC(N)=O)NC(=O)[C@@H]1C[C@@H](OCc2ccccc2)CN1C(=O)[C@H](CC(C)C)NC(=O)OCc1ccccc1 [Compound 20, Ethyl-3-[CBZ-L-Leu-L-(4R-Benzyloxy)-Pro-L-Gln]-E-Propenoate]	10.3	5.4	3330	56	62	–
CCOC(=O)/C=C/[C@H](CCC(N)=O)NC(=O)[C@H](Cc1ccccc1)N(C)C(=O)[C@H](CC(C)C)NC(=O)SCC [Compound 11, Ethyl-3-(Ethylthiocarbonyl-L-Leu-L-N-Me-Phe-L-Gln)-E-Propenoate]	> 603	0.53	12000	> 320	–	–
CCOC(=O)C=CC(CCC(N)=O)NC(=O)C1CC(OC(C)(C)C)CN1C(=O)C(CC(C)C)NC(=O)OCc1ccccc1 (stereo not shown) [Compound 23]	22	10	605	224	60	–
CC(C)C[C@H](NC(=O)OCc1ccccc1)C(=O)N1CCCC[C@H]1C(=O)N[C@H](/C=C/C(=O)N1CCCCO1)CCC(N)=O [Compound 26, 1-[1',2'-Oxazin-2'-yl]-3-(CBZ-L-Leu-L-Pip-L-Gln)-E-Propenone]	> 5	56	875	> 320	34	–
CCOC(=O)/C=C/C(CCC(N)=O)NC(=O)[C@@H]1CCc2ncc(N(C(=O)SC3CCCC3)C(=O)SC3CCCC3)c(=O)n21 (stereo partly shown) [Compound 50]	> 31	3.2	14000	> 100	–	–
CCOC(=O)/C=C/[C@H](CCC(N)=O)NC(=O)[C@H](Cc1ccccc1)N(C)C(=O)[C@H](CC(C)C)NC(=O)SCC(C)C [Compound 44]	104	0.54	12300	56.2	–	–
CCOC(=O)/C=C/[C@H](CCC(N)=O)NC(=O)[C@H](Cc1ccccc1)N(C)C(=O)[C@H](CC(C)C)NC(=O)SCC1CCCCC1 [Compound 40]	141	0.32	12100	45	–	–
CCOC(=O)/C=C/C(CCC(N)=O)NC(=O)[C@H](Cc1ccccc1)N1CC[C@H](NC(=O)OCc2ccccc2)C1=O (stereo partly shown) [Compound 53]	> 22	4.5	242	> 100	–	–
CC(C)C[C@H](NC(=O)SC1CCCC1)C(=O)N(C)[C@@H](Cc1ccccc1)C(=O)N[C@H](/C=C/C(=O)OCc1ccccc1)CCC(N)=O [Compound 56]	13	1.6	15400	20	–	–
CCOC(=O)/C=C/C(CCC(N)=O)NC(=O)[C@H](Cc1ccccc1)N1CC[C@@H](NC(=O)OCc2ccccc2)C1=O (stereo partly shown) [Compound 55]	> 2	50	–	> 100	–	20
CCOC(=O)/C=C/[C@H](CCC(N)=O)NC(=O)[C@@H]1CCCN1C(=O)[C@H](CC(C)C)NC(=O)OCc1ccccc1 [Compound 19, Ethyl-3-(CBZ-L-Leu-L-Pro-L-Gln)-E-Propenoate]	> 6	50	1930	> 320	–	–
CCOC(=O)/C=C/[C@H](CCC(N)=O)NC(=O)[C@H](Cc1ccccc1)N(C)C(=O)OCc1ccccc1 [Compound 1, Ethyl-3-(CBZ-L-N-Me-Phe-L-Gln)-E-Propenoate]	13	20	52	251	> 100	–
CCOC(=O)/C=C/C(CCC(N)=O)NC(=O)[C@@H]1CCc2ncc(NC(=O)SC3CCCC3)c(=O)n21 (stereo partly shown) [Compound 51]	> 8	12.6	43900	> 100	–	–
CCOC(=O)/C(C)=C/[C@H](CCC(N)=O)NC(=O)[C@H](Cc1ccccc1)N(C)C(=O)[C@H](CC(C)C)NC(=O)SC(C)C [Compound 39]	113	1.6	2330	180	–	–
CCOC(=O)/C(C)=C/[C@H](CCC(N)=O)NC(=O)[C@H](Cc1ccccc1)N(C)C(=O)[C@H](CC(C)C)NC(=O)SCC1CCCCC1 [Compound 41]	9	2	2350	18	–	–
